Test results: PubChem BioAssay AID2060507 (Molecular Pharmacology Branch, DTP, NCI, 2025)

System: 519858-162-T-J1-PDC complex spheroid viability
Experiment: Anticancer human tumor 519858-162-T-J1-PDC patient-derived colon adenocarcinoma cell line growth inhibition [GQUAD]
Conditions: for IC50: curve of first compound; for viability, T/C: stronger effect = lower value
Outline: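 Multi-cell-type spheroids of tumor cells with HUVEC and mesenchymal stem cells, treated with drug combinations. Concentrations descend in half-log steps from near clinical Cmax, or from 10 microM where Cmax is unknown; viability read-out.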

[1] = second compound 0.0316 µM, first compound 0.0316 µM
[2] = second compound 0.0316 µM, first compound 0.1 µM
[3] = second compound 0.0316 µM, first compound 0.316 µM
[4] = second compound 0.0316 µM, first compound 1 µM
[5] = second compound 0.0316 µM, first compound 3.16 µM
[6] = second compound 0.0316 µM, first compound 10 µM
[7] = second compound 0.1 µM, first compound 0.0316 µM
[8] = second compound 0.1 µM, first compound 0.1 µM
[9] = second compound 0.1 µM, first compound 0.316 µM
[10] = second compound 0.1 µM, first compound 1 µM
[11] = second compound 0.1 µM, first compound 3.16 µM
[12] = second compound 0.1 µM, first compound 10 µM
[13] = second compound 0.316 µM, first compound 0.0316 µM
[14] = second compound 0.316 µM, first compound 0.1 µM
[15] = second compound 0.316 µM, first compound 0.316 µM
[16] = second compound 0.316 µM, first compound 1 µM
[17] = second compound 0.316 µM, first compound 3.16 µM
[18] = second compound 0.316 µM, first compound 10 µM
[19] = second compound 1 µM, first compound 0.0316 µM
[20] = second compound 1 µM, first compound 0.1 µM
[21] = second compound 1 µM, first compound 0.316 µM
[22] = second compound 1 µM, first compound 1 µM
[23] = second compound 1 µM, first compound 3.16 µM
[24] = second compound 1 µM, first compound 10 µM
[25] = second compound 3.16 µM, first compound 0.0316 µM
[26] = second compound 3.16 µM, first compound 0.1 µM
[27] = second compound 3.16 µM, first compound 0.316 µM
[28] = second compound 3.16 µM, first compound 1 µM
[29] = second compound 3.16 µM, first compound 3.16 µM
[30] = second compound 3.16 µM, first compound 10 µM
[31] = second compound 10 µM, first compound 0.0316 µM
[32] = second compound 10 µM, first compound 0.1 µM
[33] = second compound 10 µM, first compound 0.316 µM
[34] = second compound 10 µM, first compound 1 µM
[35] = second compound 10 µM, first compound 3.16 µM
[36] = second compound 10 µM, first compound 10 µM
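Note: spheroids exposed to compounds for 7 days.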
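Throughout, for viability, T/C: 100% = DMSO vehicle control viability.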

C=CC(=O)N1CCN(c2nc(=O)n(-c3c(C)ccnc3C(C)C)c3nc(-c4c(O)cccc4F)c(F)cc23)C(C)C1 (stereo unspecified) + CN(C)c1ccc(Nc2c3ccc(NC(=O)CCN4CCCC4)cc3nc3cc(NC(=O)CCN4CCCC4)ccc23)cc1
IC50 (second compound 0.0316 µM): > 10 µM | IC50 (second compound 0.1 µM): > 10 µM | IC50 (second compound 0.316 µM): > 10 µM | IC50 (second compound 1 µM): > 10 µM | IC50 (second compound 3.16 µM): > 10 µM | IC50 (second compound 10 µM): < 0.0316 µM | viability, T/C [1]: 91.5% | viability, T/C [2]: 84.4% | viability, T/C [3]: 61.4% | viability, T/C [4]: 69.3% | viability, T/C [5]: 94% | viability, T/C [6]: 110% | viability, T/C [7]: 81.7% | viability, T/C [8]: 72.3% | viability, T/C [9]: 80.3% | viability, T/C [10]: 61.8% | viability, T/C [11]: 84.1% | viability, T/C [12]: 95.8% | viability, T/C [13]: 88.3% | viability, T/C [14]: 80.8% | viability, T/C [15]: 120% | viability, T/C [16]: 68.8% | viability, T/C [17]: 84% | viability, T/C [18]: 60.1% | viability, T/C [19]: 78.8% | viability, T/C [20]: 74.4% | viability, T/C [21]: 56.4% | viability, T/C [22]: 69.3% | viability, T/C [23]: 78.7% | viability, T/C [24]: 80.3% | viability, T/C [25]: 62.3% | viability, T/C [26]: 63.9% | viability, T/C [27]: 68.8% | viability, T/C [28]: 62.2% | viability, T/C [29]: 47.6% | viability, T/C [30]: 94.9% | viability, T/C [31]: 48.2% | viability, T/C [32]: 40.3% | viability, T/C [33]: 56.7% | viability, T/C [34]: 61.5% | viability, T/C [35]: 49.2% | viability, T/C [36]: 66.5%

Cc1[nH]c2ccccc2c1CCNCc1ccc(/C=C/C(=O)NO)cc1 + Cc1[nH]c2ccc(F)cc2c1-c1nc2c3cccnc3c3ncccc3c2[nH]1
IC50 (second compound 0.0316 µM): > 0.316 µM | IC50 (second compound 0.1 µM): 0.091 µM | IC50 (second compound 0.316 µM): 0.165 µM | IC50 (second compound 1 µM): > 0.316 µM | IC50 (second compound 3.16 µM): > 0.316 µM | IC50 (second compound 10 µM): 0.134 µM | viability, T/C (second compound 0.0316 µM, first compound 0.000999 µM): 99.7% | viability, T/C (second compound 0.0316 µM, first compound 0.00316 µM): 117% | viability, T/C (second compound 0.0316 µM, first compound 0.00999 µM): 115% | viability, T/C [1]: 120% | viability, T/C (second compound 0.0316 µM, first compound 0.0999 µM): 64.1% | viability, T/C [3]: 49.7% | viability, T/C (second compound 0.1 µM, first compound 0.000999 µM): 82.1% | viability, T/C (second compound 0.1 µM, first compound 0.00316 µM): 128% | viability, T/C (second compound 0.1 µM, first compound 0.00999 µM): 117% | viability, T/C [7]: 88.3% | viability, T/C (second compound 0.1 µM, first compound 0.0999 µM): 42% | viability, T/C [9]: 51.3% | viability, T/C (second compound 0.316 µM, first compound 0.000999 µM): 113% | viability, T/C (second compound 0.316 µM, first compound 0.00316 µM): 67.8% | viability, T/C (second compound 0.316 µM, first compound 0.00999 µM): 76% | viability, T/C [13]: 113% | viability, T/C (second compound 0.316 µM, first compound 0.0999 µM): 59.8% | viability, T/C [15]: 37.2% | viability, T/C (second compound 1 µM, first compound 0.000999 µM): 107% | viability, T/C (second compound 1 µM, first compound 0.00316 µM): 54.1% | viability, T/C (second compound 1 µM, first compound 0.00999 µM): 86.5% | viability, T/C [19]: 73.3% | viability, T/C (second compound 1 µM, first compound 0.0999 µM): 54.5% | viability, T/C [21]: 53.2% | viability, T/C (second compound 3.16 µM, first compound 0.000999 µM): 65.3% | viability, T/C (second compound 3.16 µM, first compound 0.00316 µM): 56.5% | viability, T/C (second compound 3.16 µM, first compound 0.00999 µM): 64.8% | viability, T/C [25]: 54% | viability, T/C (second compound 3.16 µM, first compound 0.0999 µM): 70.2% | viability, T/C [27]: 46.7% | viability, T/C (second compound 10 µM, first compound 0.000999 µM): 76.9% | viability, T/C (second compound 10 µM, first compound 0.00316 µM): 77.7% | viability, T/C (second compound 10 µM, first compound 0.00999 µM): 55% | viability, T/C [31]: 65.5% | viability, T/C (second compound 10 µM, first compound 0.0999 µM): 52.4% | viability, T/C [33]: 43.2%

C#Cc1c(F)ccc2cc(O)cc(-c3ncc4c(N5CC6CCC(C5)N6)nc(OCC56CCCN5CC(F)C6)nc4c3F)c12 (stereo unspecified) + Cc1[nH]c2ccc(F)cc2c1-c1nc2c3cccnc3c3ncccc3c2[nH]1
IC50 (second compound 0.0316 µM): > 10 µM | IC50 (second compound 0.1 µM): > 10 µM | IC50 (second compound 0.316 µM): > 10 µM | IC50 (second compound 1 µM): > 10 µM | IC50 (second compound 3.16 µM): > 10 µM | IC50 (second compound 10 µM): > 10 µM | viability, T/C [1]: 103% | viability, T/C [2]: 82.9% | viability, T/C [3]: 92% | viability, T/C [4]: 113% | viability, T/C [5]: 72.3% | viability, T/C [6]: 73.2% | viability, T/C [7]: 111% | viability, T/C [8]: 85.9% | viability, T/C [9]: 126% | viability, T/C [10]: 83.9% | viability, T/C [11]: 68.3% | viability, T/C [12]: 73% | viability, T/C [13]: 104% | viability, T/C [14]: 112% | viability, T/C [15]: 87.5% | viability, T/C [16]: 75.7% | viability, T/C [17]: 106% | viability, T/C [18]: 66.1% | viability, T/C [19]: 79.4% | viability, T/C [20]: 73.9% | viability, T/C [21]: 104% | viability, T/C [22]: 60.4% | viability, T/C [23]: 106% | viability, T/C [24]: 58.5% | viability, T/C [25]: 86.5% | viability, T/C [26]: 80% | viability, T/C [27]: 79.7% | viability, T/C [28]: 52.6% | viability, T/C [29]: 76.7% | viability, T/C [30]: 80.3% | viability, T/C [31]: 78.3% | viability, T/C [32]: 83.2% | viability, T/C [33]: 76.3% | viability, T/C [34]: 63.5% | viability, T/C [35]: 52.3% | viability, T/C [36]: 65.6%
